Results from publication PMC4515429, “Anti-Biofilm and Immunomodulatory Activities of Peptides That Inhibit Biofilms Formed by Pathogens Isolated from Cystic Fibrosis Patients” (Antibiotics, 2014).
≈ marks a conversion by molar mass, not a printed value. Where two headings read alike, the source gives them in different places. Where a SMILES comes first, the peptide text is derived from it. Bridges are numbered along the chain shown (N, C = ends). Where no end group is shown, it is not given here. [ ]: non-standard residue; d: D form. The star is where a group is joined. X1 = CC[C@H](C)CCCCC(=O)*; Dab = NCC[C@H](N)C(=O)O

Key:
[1] = tested on: B. ambifaria CEP0996 (VII); details: 18 h
Experimental: (§1) In addition to the wild type lab isolates Pseudomonas aeruginosa strains PAO1 and PA14, a variety of cystic fibrosis clinical isolates of P. aeruginosa and Burkholderia cepacia complex strains were utilized (Table 1). Planktonic cells from each of the P. aeruginosa and B. cepacia strains were grown in BM2 glucose or cation-adjusted Mueller-Hinton. The minimal inhibitory concentration (MIC) for peptides in brain-heart infusion (BHI) was assessed by the broth microdilution method with minor modifications for cationic peptides. […] MIC assays were performed in sterile 96-well polypropylene microtiter plates. […] The plates were incubated at 37 °C for 18 h.

[2] = tested on: B. cenocepacia 4813 (IIIa); details: 18 h
Experimental: as §1

[3] = tested on: B. cenocepacia C5424 (IIIa); details: 18 h
Experimental: as §1

[4] = tested on: B. cenocepacia CEP0055 (IIIb); details: 18 h
Experimental: as §1

[5] = tested on: B. cenocepacia CEP509 (IIIb); details: 18 h
Experimental: as §1

B. dolosa CEP0021 (VI) = details: 18 h
Experimental: as §1

[6] = tested on: B. multivorans D2661 (Genomovar II); details: 18 h
Experimental: as §1

B. stabilis C6061 (IV) = details: 18 h
Experimental: as §1

[7] = tested on: P. aeruginosa 1172 (Classic)
Experimental: as §1

[8] = tested on: P. aeruginosa 2631 (Classic)
Experimental: as §1

[9] = tested on: P. aeruginosa 2639 (Mucoid)
Experimental: as §1

[10] = tested on: P. aeruginosa 3195 (Classic)
Experimental: as §1

[11] = tested on: P. aeruginosa 3330 (Classic)
Experimental: as §1

[12] = tested on: P. aeruginosa 4020 (Classic)
Experimental: as §1

[13] = tested on: P. aeruginosa 4608 (Mucoid)
Experimental: as §1

[14] = tested on: P. aeruginosa 7632 (Classic)
Experimental: as §1

[15] = tested on: P. aeruginosa 7633 (Entire)
Experimental: as §1

[16] = tested on: P. aeruginosa C2773 (Classic)
Experimental: as §1

[17] = tested on: P. aeruginosa C4276 (Classic)
Experimental: as §1

[18] = tested on: P. aeruginosa C4278 (Mucoid)
Experimental: as §1

P. aeruginosa PA01 = details: 18 h
Experimental: as §1

P. aeruginosa PA14 = tested on: P. aeruginosa PA14
Experimental: as §1

P. aeruginosa = details: at one sixteenth the minimum inhibitory concentration (MIC); cited from earlier work
Excerpt: Cationic host defense (antimicrobial) peptides represent a novel alternative to conventional antibiotics. […] Similar results were subsequently shown by other groups. This encouraged t ...

[19] = tested on: planktonic cells of Burkholderia strains
Experimental: as §1

[20] = planktonic cells, broth microdilution, BHI, 5 × 10^5 CFU/mL, 37 °C, performed at least three times
[21] = planktonic cells, broth microdilution, BHI, 5 × 10^5 CFU/mL, 37 °C, 18 h, performed at least three times

Q: Which MIC [1, 20] does the source give for `CC[C@H](C)[C@H](NC(=O)[C@H](CCCCN)NC(=O)[C@H](CCC(=O)O)NC(=O)[C@H](CCCCN)NC(=O)[C@H](CO)NC(=O)[C@H](CCCCN)NC(=O)[C@H](CCCNC(=N)N)NC(=O)[C@H](Cc1ccccc1)NC(=O)[C@H](Cc1ccccc1)NC(=O)[C@H](CC(=O)O)NC(=O)CNC(=O)[C@H](CC(C)C)NC(=O)[C@@H](N)CC(C)C)C(=O)NCC(=O)N[C@@H](CCCCN)C(=O)N[C@@H](CCC(=O)O)C(=O)N[C@@H](Cc1ccccc1)C(=O)N[C@@H](CCCCN)C(=O)N[C@@H](CCCNC(=N)N)C(=O)N[C@H](C(=O)N[C@H](C(=O)N[C@@H](CCC(N)=O)C(=O)N[C@@H](CCCNC(=N)N)C(=O)N[C@H](C(=O)N[C@@H](CCCCN)C(=O)N[C@@H](CC(=O)O)C(=O)N[C@@H](Cc1ccccc1)C(=O)N[C@@H](CC(C)C)C(=O)N[C@@H](CCCNC(=N)N)C(=O)N[C@@H](CC(N)=O)C(=O)N[C@@H](CC(C)C)C(=O)N[C@H](C(=O)N1CCC[C@H]1C(=O)N[C@@H](CCCNC(=N)N)C(=O)N[C@H](C(=O)N[C@@H](CCC(=O)O)C(=O)N[C@@H](CO)C(=O)O)[C@@H](C)O)C(C)C)[C@@H](C)CC)C(C)C)[C@@H](C)CC` [LL-37] here?
A: >512 µg/mL

Q: And the MIC [2, 20]?
A: >256 µg/mL

Q: What about the MIC [3, 20] of the same compound?
A: >256 µg/mL

Q: What about the MIC [4, 20] of the same compound?
A: >512 µg/mL

Q: And the MIC [5, 20]?
A: >512 µg/mL

Q: What about the MIC (B. dolosa CEP0021 (VI); [20]) of the same compound?
A: >512 µg/mL

Q: What about the MIC [6, 20] of the same compound?
A: >512 µg/mL

Q: What about the MIC (B. stabilis C6061 (IV); [20]) of the same compound?
A: >512 µg/mL

Q: What about the MIC [7, 21] of the same compound?
A: >128 µg/mL

Q: What about the MIC [8, 21] of the same compound?
A: >256 µg/mL

Q: What about the MIC [9, 21] of the same compound?
A: >128 µg/mL

Q: And the MIC [10, 21]?
A: 64 µg/mL (≈ 14.2 µM)

Q: And the MIC [11, 21]?
A: >128 µg/mL

Q: And the MIC [12, 21]?
A: >128 µg/mL

Q: And the MIC [13, 21]?
A: >128 µg/mL

Q: What about the MIC [14, 21] of the same compound?
A: 256 µg/mL (≈ 57 µM)

Q: And the MIC [15, 21]?
A: >128 µg/mL

Q: What about the MIC [16, 21] of the same compound?
A: 256 µg/mL (≈ 57 µM)

Q: What about the MIC [17, 21] of the same compound?
A: 256 µg/mL (≈ 57 µM)

Q: And the MIC [18, 21]?
A: >256 µg/mL

Q: What about the MIC (P. aeruginosa PA01; [20]) of the same compound?
A: 32 µg/mL (≈ 7.12 µM)

Q: And the MIC (P. aeruginosa PA14; [21])?
A: 32 µg/mL (≈ 7.12 µM)

Q: And the “decrease in biofilm formation” value (P. aeruginosa)?
A: 50%

Q: With `CC[C@H](C)CCCCC(=O)N[C@@H](CCN)C(=O)N[C@H](C(=O)N[C@@H](CCN)C(=O)N[C@H]1CCNC(=O)[C@H]([C@@H](C)O)NC(=O)[C@H](CCN)NC(=O)[C@H](CCN)NC(=O)[C@H](CC(C)C)NC(=O)[C@@H](Cc2ccccc2)NC(=O)[C@H](CCN)NC1=O)[C@@H](C)O` [Polymyxin B] (X1-[Dab]T[Dab][Dab][Dab][dF]L[Dab][Dab]T; lactam 4-C (inferred); N-terminus assumed) as the compound, how does the MIC [1] read?
A: >128 µg/mL

Q: What about the MIC [2] of the same compound?
A: >128 µg/mL

Q: What about the MIC [3] of the same compound?
A: >128 µg/mL

Q: And the MIC [4]?
A: >128 µg/mL

Q: What about the MIC [5] of the same compound?
A: >128 µg/mL

Q: And the MIC (B. dolosa CEP0021 (VI))?
A: >128 µg/mL

Q: And the MIC [6]?
A: >128 µg/mL

Q: What about the MIC (B. stabilis C6061 (IV)) of the same compound?
A: >128 µg/mL

Q: And the MIC ([7]; 1172 (Classic, 18 h))?
A: 2 µg/mL (≈ 1.66 µM)

Q: What about the MIC ([8]; 2631 (Classic, 18 h)) of the same compound?
A: 4 µg/mL (≈ 3.32 µM)

Q: What about the MIC ([9]; 2639 (Mucoid, 18 h)) of the same compound?
A: 2 µg/mL (≈ 1.66 µM)

Q: And the MIC ([10]; 3195 (Classic, 18 h))?
A: 2 µg/mL (≈ 1.66 µM)

Q: What about the MIC ([11]; 3330 (Classic, 18 h)) of the same compound?
A: 2 µg/mL (≈ 1.66 µM)

Q: And the MIC ([12]; 4020 (Classic, 18 h))?
A: 2 µg/mL (≈ 1.66 µM)

Q: And the MIC ([13]; 4608 (Mucoid, 18 h))?
A: 2 µg/mL (≈ 1.66 µM)

Q: And the MIC ([14]; 7632 (Classic, 18 h))?
A: 2 µg/mL (≈ 1.66 µM)

Q: What about the MIC ([15]; 7633 (Entire, 18 h)) of the same compound?
A: 2 µg/mL (≈ 1.66 µM)

Q: And the MIC ([16]; C2773 (Classic, 18 h))?
A: 4 µg/mL (≈ 3.32 µM)

Q: And the MIC ([17]; C4276 (Classic, 18 h))?
A: 2 µg/mL (≈ 1.66 µM)

Q: And the MIC ([18]; C4278 (Mucoid, 18 h))?
A: 2 µg/mL (≈ 1.66 µM)

Q: What about the MIC (P. aeruginosa PA01) of the same compound?
A: 2 µg/mL (≈ 1.66 µM)

Q: And the MIC (P. aeruginosa PA14; PA14, 18 h)?
A: 2 µg/mL (≈ 1.66 µM)

Q: Which “MIC against planktonic cells of Burkholderia strains” value [19] does the source give for “KRWWKWIRW-NH2 (C-terminus assumed) [HHC-10]” here?
A: > 256 µg/mL

Q: For “KRWWKWWRR-NH2 (C-terminus assumed) [HHC-36]”, which “MIC against planktonic cells of Burkholderia strains” value [19] is on record?
A: > 256 µg/mL

Q: For RFKRVARVIW [HE12], which MIC (P. aeruginosa PA14; PA14, 18 h) is on record?
A: 80 µg/mL
